Reference: patent US8871751B2, “Compositions and methods relating to nuclear hormone and steroid hormone receptors including inhibitors of estrogen receptor alpha-mediated gene expression and inhibition of breast cancer” (The Board of Trustees of the University of Illinois, priority 2008, dated 2014)

Experiments:
[1] = target: T1, human androgen receptor (AR) binding to flARE (Homo sapiens, UniProt P10275); assay: FAMA: inhibition of AR binding to flcARE; details: binding to HRE, 5 concentrations 0.5-10 μM, sequential method
T1 construct: AR assays contained 1 nM flcARE and 50 nM full-length wild-type AR; FLAG; made in house
T1 sequence (P10275 1-920): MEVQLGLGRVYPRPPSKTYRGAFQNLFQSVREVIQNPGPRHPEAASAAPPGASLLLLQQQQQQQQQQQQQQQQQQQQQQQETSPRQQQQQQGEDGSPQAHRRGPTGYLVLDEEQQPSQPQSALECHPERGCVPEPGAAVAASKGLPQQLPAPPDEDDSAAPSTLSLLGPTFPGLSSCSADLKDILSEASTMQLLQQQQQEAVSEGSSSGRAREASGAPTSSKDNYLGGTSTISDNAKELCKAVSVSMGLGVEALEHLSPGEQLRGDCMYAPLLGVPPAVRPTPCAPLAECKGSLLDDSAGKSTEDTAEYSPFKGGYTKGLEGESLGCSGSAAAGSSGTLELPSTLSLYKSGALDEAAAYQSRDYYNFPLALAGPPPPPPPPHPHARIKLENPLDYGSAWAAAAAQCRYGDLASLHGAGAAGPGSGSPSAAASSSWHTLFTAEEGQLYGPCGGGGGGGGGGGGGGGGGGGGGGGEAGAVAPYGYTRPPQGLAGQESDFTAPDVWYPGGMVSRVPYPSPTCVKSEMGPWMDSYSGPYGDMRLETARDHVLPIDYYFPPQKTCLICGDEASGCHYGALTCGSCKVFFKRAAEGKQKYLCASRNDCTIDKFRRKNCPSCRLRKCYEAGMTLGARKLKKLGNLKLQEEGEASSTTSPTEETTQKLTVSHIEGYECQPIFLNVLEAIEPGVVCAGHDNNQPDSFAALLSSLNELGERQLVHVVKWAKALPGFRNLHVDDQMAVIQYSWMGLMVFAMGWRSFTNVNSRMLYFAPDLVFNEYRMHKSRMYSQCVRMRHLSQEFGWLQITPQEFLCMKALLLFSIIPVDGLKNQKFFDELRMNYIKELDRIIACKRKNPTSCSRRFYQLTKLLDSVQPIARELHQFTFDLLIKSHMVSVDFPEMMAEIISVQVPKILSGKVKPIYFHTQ
Method: (§1) Dose response curves for selected compounds were carried out as described for the HTS screen except that each well contained the indicated concentration of test compound. PR assays were carried out in the same buffer used for ERα assays and contained 1 nM flcPRE and 11 nM PR-B and 100 nM progesterone. The buffer used for AR was similar but also contained 5 μM ZnCl, 5 mM NaF, 0.6 μM CHAPS and 100 nM dihydrotestosterone. AR assays contained 1 nM flcARE and 50 nM full-length wild-type AR.
(§2) Specificity was evaluated in dose-response studies by quantitative FAMA using purified full-length human PR binding to a fluorescein-labeled progesterone/glucocorticoid response element (flPRE) and full-length human androgen receptor (AR) binding to a fluorescein-labeled androgen response element (flARE).

[2] = target: T2, human PR-B binding to flPRE (Homo sapiens, UniProt P06401); assay: FAMA: inhibition of PR binding to flcPRE; details: binding to HRE, 5 concentrations 0.5-10 μM, sequential method
T2 construct: FLAG; made in house
T2 sequence (P06401 1-933): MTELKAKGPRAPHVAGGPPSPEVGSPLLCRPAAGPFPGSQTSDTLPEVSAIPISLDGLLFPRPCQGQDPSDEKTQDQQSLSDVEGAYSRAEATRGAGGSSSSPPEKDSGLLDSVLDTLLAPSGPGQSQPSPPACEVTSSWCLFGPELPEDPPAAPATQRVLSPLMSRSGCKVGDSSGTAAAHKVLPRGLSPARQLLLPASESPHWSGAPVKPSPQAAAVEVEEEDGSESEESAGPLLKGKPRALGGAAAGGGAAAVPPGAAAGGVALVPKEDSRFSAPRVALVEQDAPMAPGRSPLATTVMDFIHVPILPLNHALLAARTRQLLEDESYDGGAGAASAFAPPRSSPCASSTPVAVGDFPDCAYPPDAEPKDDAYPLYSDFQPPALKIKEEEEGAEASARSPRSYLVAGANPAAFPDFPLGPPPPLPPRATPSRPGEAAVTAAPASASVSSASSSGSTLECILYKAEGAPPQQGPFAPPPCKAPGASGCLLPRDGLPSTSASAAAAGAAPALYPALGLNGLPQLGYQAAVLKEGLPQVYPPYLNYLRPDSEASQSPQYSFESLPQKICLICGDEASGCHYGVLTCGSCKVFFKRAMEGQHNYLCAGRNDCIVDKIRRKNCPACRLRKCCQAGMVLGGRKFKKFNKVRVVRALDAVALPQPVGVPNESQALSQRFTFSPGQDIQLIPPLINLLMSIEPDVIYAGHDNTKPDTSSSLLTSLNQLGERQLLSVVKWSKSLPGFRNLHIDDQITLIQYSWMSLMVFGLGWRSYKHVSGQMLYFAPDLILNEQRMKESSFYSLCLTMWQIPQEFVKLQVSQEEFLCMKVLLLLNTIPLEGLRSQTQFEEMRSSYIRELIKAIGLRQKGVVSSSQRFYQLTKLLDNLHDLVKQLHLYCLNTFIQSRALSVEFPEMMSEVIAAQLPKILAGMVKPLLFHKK
Method: as §1, §2

PR = target: T3, PR (Homo sapiens, UniProt P06401); assay: PR transactivation, MMTV-luciferase reporter in T47D cells; type: cell-based
T3 construct: endogenous in cells; host or cells: T47D (stably transfected with GR and MMTV-luciferase)
T3 sequence (P06401 1-933): T2 sequence (P06401 1-933)
Method: The T47D-KBluc cells stably express an (ERE)3-luciferase reporter gene (38). Cells were maintained in phenol red-free RPMI 1640 with 2 mM L-glutamine, 1.5 g/l sodium bicarbonate, 4.5 g/l glucose, 10 mM Hepes, pH 7.5, 1 mM sodium pyruvate, 10% FBS (Atlanta Biological, Atlanta, Ga.) and antibiotics. Four days before E2 induction, the cells were switched to the above medium, with 10% 2× charcoal-dextran-treated calf serum instead of FBS. 200,000 cells/well were transferred to each well of a 24-well plate. After 24 h the indicated concentrations of the test compounds were added in DMSO and E2 was added to 20 pM. After 24 h cells were washed once in PBS, and 150 μl 1× Passive Lysis Buffer (Promega, Madison Wis.) was used to lyse the cells. Luciferase activity was determined using firefly luciferase reagents from Promega (Madison, Wis.). T47D cells stably transfected to express GR and a mouse mammary tumor virus luciferase reporter that responds to liganded GR and PR were maintained and assayed in medium containing 5 nM progesterone for PR assays, or 2.5 nM dexamethsaone for GR assays, essentially as described (39).

Compound	IC50 [1] [µM]	IC50 [2] [µM]	PR at 30 μM (PR)	effect on PR transactivation (PR; 5 nM progesterone, up to 30 μM)
CN1CCC(C#N)c2ccccc21 (stereo not shown) [Compound 1529]	5.2	7.5	–	–
Cn1c(=O)c2[nH]c(SC3CCCCC3)nc2n(C)c1=S [Compound 95899, 8-Cyclohexylsulfanyl-1,3-dimethyl-2-thioxo-1,2,3,7-tetrahydro-purin-6-one]	–	–	42	–
CN(C)CCCn1c2c3ccccc3ccc2c2oc(=O)c3ccccc3c21 [Compound 638432]	5	7.4	–	–

Continued, values first:

IC50 [1] [µM]	IC50 [2] [µM]	PR at 30 μM (PR)	effect on PR transactivation (PR; 5 nM progesterone, up to 30 μM)	Compound
–	–	0	–	CCCSc1nc2c([nH]1)c(=O)n(C)c(=S)n2C [Compound 95869, 1,3-Dimethyl-8-propylsulfanyl-2-thioxo-1,2,3,7-tetrahydro-purin-6-one]
7.6	9.5	–	did not significantly inhibit	Cn1c(=O)c2nc(CSCc3ccccc3)[nH]c2n(C)c1=O [Compound 95910, 8-Benzylsulfanylmethyl-1,3-dimethyl-3,7-dihydro-purine-2,6-dione]
–	–	71	–	Cn1c(=O)c2[nH]c(C3CC4CCC3C4)nc2n(C)c1=O (stereo not shown) [Compound 101807, 8-Bicyclo[2.2.1]hept-2-yl-1,3-dimethyl-3,7-dihydro-purine-2,6-dione]
